From patent US6313170A, “L-threonate ferrous, as well as pharmaceutical composition and use for improving and treating human anemia thereof” (priority 1997, dated 2001)
Like-named read-outs stand apart in the source and are kept apart here.

Legend:
[1] = tested on: rat
[2] = tested on: mice testicle cells; conditions: mouse, in vivo
[3] = tested on: Hemolytic Anemia Model; assay: Hemolytic anemia model (acetylphenylhydrazine), rats; assay type: in vivo, male Wistar rats
Procedure: 1. […] All drugs were diluted by distilled water.
2. […] Animal diet also was purchased from Beijing Medical University.
(1) Hemolytic Anemia Model: Hemolytic anemia model was prepared for rats by injecting reagent of acetylphenylhydrazine (C8 H10 N2 O, produced by Beijing Biochemical Company) subcutaneously. The drug acetyphenylhydrazine was mixed with physiological saline to get its injection solution of 4% by weight of acetyphenylhydrazine. The solution was injected subcutaneously into each rat with a dosage of 57 μg/g at the beginning of the experiments. The content of blood hemochrome for each rat was examined at 2 days and 4 days later, respectively. When the mean blood hemochrome decreased to about 6.11±0.25 g %, rats were randomly divided into 6 groups of 18 rats each. […] The forth groups was positive drug control groups. The fifth group and the sixth group were designed as model group and normal control group, respectively.

[4] = tested on: Blood-loss Anemia Model; assay: Blood-loss anemia model, rats; conditions: for Blood hemochrome content / GPC (blood granulophilocyte) / RBC: n=10;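 on all read-outs here: male Wistar rats made anemic by repeated orbital bloodletting, kept on iron-low diet with deionized water while dosed, compared against untreated anemic model and normal-diet control groups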
Procedure: Ferrous gluconate, the positive control drug, yellow-green powder and 11% ferrous content, was purchased from Ganjian Pharmaceutical Company of Jianxi Province. Ferrous fumarate, 6.4% ferrous content, was purchased from the 18th Pharmaceutical Company of Shanghai. All drugs were diluted by distilled water.
7 groups were prepared as hemolytic anemia groups and one group was taken as normal control group supplemented with normal diet and water. The hemolytic anemia model was prepared by subjecting rats to inner canthus bloodletting of right eye through capillary glass tube. The first bloodletting content was 2.0 ml for each rat and in that time the range of hemochrome for rats was from 9.78 to 10.65 g %. Two days later, the second bloodletting (2 ml/rat) was carried out with the hemochrome values of 7.40-7.88 g %. The total bloodletting volume for each rat was 4 ml and was 32.9% in volume of the whole blood circulating the body.
While one hemolytic anemia group and one normal control group were taken as reference groups compared with other groups left. These two groups' rats were killed and the blood parameters were recorded. Other six groups now were randomly divided into three treatment groups of ferrous L-threonate with high, middle and low dosages respectively, two positive drugs control groups of ferrous gluconate and ferrous fumarate and one model group. At the end of 12 days and 18 days experimental periods, 5 and 10 rats of each group were killed correspondingly. During the course of experiment, the variations of hemochrome content were examined with 6 days interval.
While Element ferrous content 8.64 mg/kg as ferrous gluconate or ferrous fumarate was for positive drug control group. The groups for blood-loss anemia were provided iron-low diet and deionized water during the period of the administration of drugs, while the normal animal control group was provided normal diet and deionized water.

[5] = 8.64 mg Fe/kg (middle dosage / positive control)
[6] = 8.64 mg Fe/kg (middle dosage / positive controls), 12 days
[7] = 8.64 mg Fe/kg (middle dosage / positive controls), 18 days
[8] = high dosage, 17.28 mg Fe/kg, 12 days
[9] = high dosage, 17.28 mg Fe/kg, 18 days
[10] = low dosage, 4.32 mg Fe/kg, 12 days
[11] = low dosage, 4.32 mg Fe/kg, 18 days

In the case of ferrous L-threonate, the toxicity grade ([1]; acute toxicity, rat) is reported as “belongs to the grade of very lower”, the LD50 ([1]; female rat) is reported as 3160 mg/kg and the LD50 ([1]; male rat) is reported as 3690 mg/kg. The safety in use ([1]; rat, in vivo) was “used safely and without toxicity”, the “chromosome aberration test result” value [2] was “negative” and the “Iron content of whole blood” value [3, 5] was 301.89 ± 19.500 µg/mL. For the same substance, the “Serum ferritin (SF)” value [3, 5] was 23.54 ± 2.50 ng/mL, the hemoglobin content ([3]; 8.64 mg Fe/kg (middle dosage / positive control), after anemia (before treatment)) was 5.87 g % and the hemoglobin content ([3]; 8.64 mg Fe/kg (middle dosage / positive control), before anemia (baseline)) was 15.01 g %. For the same substance, the hemoglobin content ([3]; 8.64 mg Fe/kg (middle dosage / positive control), one week after treatment) was 11.11 g %, the hemoglobin content ([3]; 8.64 mg Fe/kg (middle dosage / positive control), two weeks after treatment) was 14.04 g % and the “whole blood iron and serum ferritin compared with ferrous gluconate group” value ([3]; groups except low dosage group) was “more considerably better than those of ferrous gluconate group”. For the same substance, the “Iron content of whole blood” value ([3]; high dosage, 17.28 mg Fe/kg) was 326.95 ± 26.956 µg/mL, the “Serum ferritin (SF)” value ([3]; high dosage, 17.28 mg Fe/kg) was 24.05 ± 1.74 ng/mL and the hemoglobin content ([3]; high dosage, 17.28 mg Fe/kg, after anemia (before treatment)) was 6.18 g %. The hemoglobin content ([3]; high dosage, 17.28 mg Fe/kg, before anemia (baseline)) was 14.9 g %, the hemoglobin content ([3]; high dosage, 17.28 mg Fe/kg, one week after treatment) was 11.95 g % and the hemoglobin content ([3]; high dosage, 17.28 mg Fe/kg, two weeks after treatment) was 14.34 g %. For the same substance, the “Iron content of whole blood” value ([3]; low dosage, 4.32 mg Fe/kg) was 283.53 ± 23.051 µg/mL, the “Serum ferritin (SF)” value ([3]; low dosage, 4.32 mg Fe/kg) was 19.38 ± 1.57 ng/mL and the hemoglobin content ([3]; low dosage, 4.32 mg Fe/kg, after anemia (before treatment)) was 5.94 g %. For the same substance, the hemoglobin content ([3]; low dosage, 4.32 mg Fe/kg, before anemia (baseline)) was 14.89 g %, the hemoglobin content ([3]; low dosage, 4.32 mg Fe/kg, one week after treatment) was 9.95 g % and the hemoglobin content ([3]; low dosage, 4.32 mg Fe/kg, two weeks after treatment) was 12.57 g %. For the same substance, the “action on treating anemia compared with ferrous gluconate” value ([3]; same dosage of iron, 8.64 mg/kg) was “considerably better than ferrous gluconate”, the Blood hemochrome content ([4]; 8.64 mg Fe/kg (middle dosage / positive controls), 6 days after treatment) was 8.35 ± 0.21 and the Blood hemochrome content ([4]; 8.64 mg Fe/kg (middle dosage / positive controls), 12 days after treatment) was 10.67 ± 0.37. For the same substance, the “GPC (blood granulophilocyte)” value [4, 6] was 12.58%, the RBC [4, 6] was 4.81e+12 L⁻¹ and the Blood hemochrome content ([4]; 8.64 mg Fe/kg (middle dosage / positive controls), 18 days after treatment) was 12.14 ± 0.27. The “GPC (blood granulophilocyte)” value [4, 7] was 8.44%, the RBC [4, 7] was 5.21e+12 L⁻¹ and the Blood hemochrome content ([4]; 8.64 mg Fe/kg (middle dosage / positive controls), before treatment) was 7.40 ± 0.54. For the same substance, the Blood hemochrome content ([4]; high dosage, 17.28 mg Fe/kg, 6 days after treatment) was 8.70 ± 0.43, the Blood hemochrome content ([4]; high dosage, 17.28 mg Fe/kg, 12 days after treatment) was 11.01 ± 0.34 and the “GPC (blood granulophilocyte)” value [4, 8] was 10.04%. For the same substance, the RBC [4, 8] was 5.67e+12 L⁻¹, the Blood hemochrome content ([4]; high dosage, 17.28 mg Fe/kg, 18 days after treatment) was 12.40 and the “GPC (blood granulophilocyte)” value [4, 9] was 7.84%. It also gave an RBC [4, 9] of 5.84e+12 L⁻¹, a Blood hemochrome content ([4]; high dosage, 17.28 mg Fe/kg, before treatment) of 7.88 ± 0.28 and a Blood hemochrome content ([4]; low dosage, 4.32 mg Fe/kg, 6 days after treatment) of 8.00 ± 0.42. The Blood hemochrome content ([4]; low dosage, 4.32 mg Fe/kg, 12 days after treatment) was 10.20 ± 0.49, the “GPC (blood granulophilocyte)” value [4, 10] was 13.12% and the RBC [4, 10] was 4.242e+12 L⁻¹. For the same substance, the Blood hemochrome content ([4]; low dosage, 4.32 mg Fe/kg, 18 days after treatment) was 11.26 ± 0.79, the “GPC (blood granulophilocyte)” value [4, 11] was 8.91% and the RBC [4, 11] was 4.76e+12 L⁻¹. For the same substance, the Blood hemochrome content ([4]; low dosage, 4.32 mg Fe/kg, before treatment) was 7.61 ± 0.53, the “effect on treating IDA compared with both ferrous gluconate and ferrous fumarate” value ([4]; same ferrous dosage) was “better effects on treating IDA compared with both ferrous gluconate and ferrous fumarate” and the “improvement and cure of anemia compared with ferrous gluconate and ferrous fumarate” value ([4]; summary statement covering hemolytic anemia, blood-loss anemia and nutritional IDA) was “can significantly improve and cure hemolytic anemia, blood-loss anemia and nutritional IDA”.
